From patent US20110086759A1, “CHEMICAL COMPOUNDS” (SYNGENTA CROP PROTECTION, INC., priority 2007, published 2011)

How the values were obtained:
Format in all cases: in vivo
[1] = system: Amaranthus retoflexus (AMARE); test: Post-emergence biological efficacy, glasshouse pot test; details: Amaranthus retroflexus, 312 h; post-emergence, 1,000 g/ha, evaluated after 13 days (100=total damage; 0=no damage); read-out: Percentage damage caused to weed species, AMARE
Summary of the method: (§1)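 Plants were sown in standard soil and grown 8 days in a glasshouse (24/16° C. day/night, 14 hours light, 65% humidity), then sprayed post-emergence at 1000 or 250 g/ha from acetone/water (50:50) with 0.5% Tween 20. Damage was scored visually after 13 days (0 = none, 100 = total).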

Setaria faberi (SETFA) [2] = test: as above; details: 312 h, post-emergence, 1,000 g/ha, evaluated after 13 days (100=total damage; 0=no damage), read-out: Percentage damage caused to weed species, SETFA
Summary of the method: as §1

[3] = system: Echinochloa crus-galli (ECHCG); test: as above; details: 312 h, post-emergence, 1,000 g/ha, evaluated after 13 days (100=total damage; 0=no damage), read-out: Percentage damage caused to weed species, ECHCG
Summary of the method: as §1

[4] = system: Ipomea hederaceae (IPOHE); test: as above; details: Ipomoea hederacea, 312 h; post-emergence, 1,000 g/ha, evaluated after 13 days (100=total damage; 0=no damage); read-out: Percentage damage caused to weed species, IPOHE
Summary of the method: as §1

Solanum nigrum (SOLNI) [5] = test: as above; details: 312 h, post-emergence, 1,000 g/ha, evaluated after 13 days (100=total damage; 0=no damage), read-out: Percentage damage caused to weed species, SOLNI
Summary of the method: as §1

[6] = system: Alopecurus myosuroides (ALOMY); test: as above; details: 312 h, post-emergence, 1,000 g/ha, evaluated after 13 days (100=total damage; 0=no damage), read-out: Percentage damage caused to weed species, ALOMY
Summary of the method: as §1

[7] = system: Amaranthus retoflexus (AMARE); test: Pre-emergence biological efficacy, glasshouse pot test; details: Amaranthus retroflexus, 312 h; pre-emergence, 1,000 g/ha, evaluated after 13 days (100=total damage; 0=no damage); read-out: Percentage damage AMARE
Summary of the method: (§2)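 Compound was applied as a spray one day after sowing, at a final dose of 1000 or 250 g/ha. Plants grew under 14 h light, 24/16 °C and 65% humidity, and injury was assessed on day 13 on a 0–100 scale.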

Setaria faberi (SETFA) [8] = test: as above; details: 312 h, pre-emergence, 1,000 g/ha, evaluated after 13 days (100=total damage; 0=no damage), read-out: Percentage damage SETFA
Summary of the method: as §2

[9] = system: Echinochloa crus-galli (ECHCG); test: as above; details: 312 h, pre-emergence, 1,000 g/ha, evaluated after 13 days (100=total damage; 0=no damage), read-out: Percentage damage ECHCG
Summary of the method: as §2

[10] = system: Ipomea hederaceae (IPOHE); test: as above; details: Ipomoea hederacea, 312 h; pre-emergence, 1,000 g/ha, evaluated after 13 days (100=total damage; 0=no damage); read-out: Percentage damage IPOHE
Summary of the method: as §2

Solanum nigrum (SOLNI) [11] = test: as above; details: 312 h, pre-emergence, 1,000 g/ha, evaluated after 13 days (100=total damage; 0=no damage), read-out: Percentage damage SOLNI
Summary of the method: as §2

[12] = system: Alopecurus myosuroides (ALOMY); test: as above; details: 312 h, pre-emergence, 1,000 g/ha, evaluated after 13 days (100=total damage; 0=no damage), read-out: Percentage damage ALOMY
Summary of the method: as §2

| Structure (SMILES) | pest or weed control at 1000 g/ha [1] | pest or weed control at 1000 g/ha (Setaria faberi (SETFA) [2]) | pest or weed control at 1000 g/ha [3] | pest or weed control at 1000 g/ha [4] | pest or weed control at 1000 g/ha (Solanum nigrum (SOLNI) [5]) | pest or weed control at 1000 g/ha [6] | pest or weed control at 1000 g/ha [7] | pest or weed control at 1000 g/ha (Setaria faberi (SETFA) [8]) | pest or weed control at 1000 g/ha [9] | pest or weed control at 1000 g/ha [10] | pest or weed control at 1000 g/ha (Solanum nigrum (SOLNI) [11]) | pest or weed control at 1000 g/ha [12] |
| --- | --- | --- | --- | --- | --- | --- | --- | --- | --- | --- | --- | --- |
| COC(=O)c1nc(C2CC2)nc(NCc2cccc(OC)c2OC)c1Cl [Compound 4-109, 5-Chloro-2-cyclopropyl-4-(2,3-dimethoxyphenyl-methylamino)-6-methoxycarbonyl-pyrimidine] | 100% | 80% | 60% | 100% | 90% | 20% | 70% | 30% | 30% | 80% | 50% | 20% |
| COC(=O)c1nc(C2CC2)nc(NCc2ccc(OC)cc2OC)c1Cl [Compound 4-110, 5-Chloro-2-cyclopropyl-4-(2,4-dimethoxyphenyl-methylamino)-6-methoxycarbonyl-pyrimidine] | 100% | 80% | 80% | 100% | 80% | 70% | 100% | 40% | 80% | 100% | 90% | 40% |
| COC(=O)c1nc(C2CC2)nc(NCc2c(OC)cccc2OC)c1Cl [Compound 4-111, 5-Chloro-2-cyclopropyl-4-(2,6-dimethoxyphenyl-methylamino)-6-methoxycarbonyl-pyrimidine] | 100% | 80% | 60% | 100% | 100% | 30% | 90% | 40% | 50% | 80% | 60% | 20% |
| COC(=O)c1nc(C2CC2)nc(NCc2ccc(OC)c(OC)c2)c1Cl [Compound 4-112, 5-Chloro-2-cyclopropyl-4-(3,4-dimethoxyphenyl-methylamino)-6-methoxycarbonyl-pyrimidine] | 100% | 90% | 90% | 100% | 100% | 40% | 70% | 80% | 40% | 90% | 90% | 50% |
| COC(=O)c1nc(C2CC2)nc(NCc2ccc3c(c2)OCO3)c1Cl [Compound 4-115, 4-(Benzo[1,3]-dioxol-5-ylmethyl-amino)-5-chloro-2-cyclopropyl-6-methoxycarbonyl-pyrimidine] | 100% | 90% | 80% | 100% | 100% | 60% | 100% | 60% | 60% | 90% | 90% | 30% |
| COC(=O)c1nc(C2CC2)nc(NCc2ccc(Cl)c(OC)c2)c1Cl [Compound 4-116, 5-Chloro-4-(4-chloro-3-methoxy-phenylmethyl-amino)-2-cyclopropyl-6-methoxycarbonyl-pyrimidine] | 100% | 90% | 100% | 100% | 100% | 60% | 100% | 80% | 70% | 100% | 100% | 50% |
